Experimental data reported in US9198979B2, “Thiazolidine linker for the conjugation of drugs to antibodies” (Philogen S.P.A., priority 2010, dated 2015).
Where two headings read alike, the source gives them in different places.

Assays:
[1] = system: HEK293T cells; test: In vitro toxicity assay (MTS cell proliferation assay), HEK293T; format: cell-based, human; details: ~72 hours
Method: HEK293T cells were grown in RPMI (Gigbo-Invitrogen) medium supplemented with 10% FCS and antibiotics and maintained at 37° C. in 5% CO2.
(§1) For the in vitro toxicity assay 30000 cells/well (final volume 100 μl) were seeded in a 96 well plate with a defined peptide dilution (by adding 1.5 μl of peptide solution to 500 μl of cell suspension) and incubated at 37° C. in 5% CO2.
(§2) After ˜72 hours, cell viability was measured using the “Cell Titer 96®Aqueous One Solution Cell Proliferation Assay” (Promega), performed according to the manufacturers instruction. Briefly: 20 μl of MTS solution were added to each well, the plate was then incubated at 37° C. for 2 hour. The read out of the assay is the absorbance at 490 nm.

[2] = system: F9 teratocarcinoma cells; test: In vitro toxicity assay (MTS cell proliferation assay), F9; format: cell-based, murine; details: F9, ~72 hours
Method: as §1, §2
(§3) The experiments were then extended to F9 and HL60 cells in the same manner.
Cem-CH2—SH cell killing ability was evaluated by cytotoxicity assays: one non-tumor cell line (human embryonic kidney cells, HEK 293T) and two tumor cell lines, murine F9 teratocarcinoma cells (F9) and human promyelocytic leukemia cells (HL60), were incubated over 3 days with different concentrations of non-modified cemadotin and the derivative Cem-CH2—SH (FIG. 20).

[3] = system: HL60 cells; test: In vitro toxicity assay (MTS cell proliferation assay), HL60; format: cell-based, human; details: HL60, ~72 hours
Method: as §1, §2, §3

Substance	t1/2 thiazolidine (fluorescein release half-life) (pH 6.6) [h]	t1/2 thiazolidine (fluorescein release half-life) (pH 7.4) [h]	cytotoxicity (IC50) [1]	cytotoxicity (IC50) [2]	cytotoxicity (IC50) [3]
BSA-fluorescein conjugate: BSA conjugated to carboxyfluorescein by the thiazolidine linker	37	44			
Cemadotin			sub-nanomolar	sub-nanomolar	sub-nanomolar
